Patent EP0114128A1, “3-Amino-2-oxo-azetidine derivatives containing in position 1 a nitrogen heterocyclic radical, process for their preparation, their use as therapeutical agents and intermediates for their preparation” (priority 1983, dated 1984)
≈ marks a conversion by molar mass, not a printed value. Where two headings read alike, the source gives them in different places.

Columns and labels:
Assay in all cases: In vitro activity, dilution method in liquid medium (MIC)
Assay type in all cases: cell-based
Proteus vulgaris A 232 = conditions: read-out: concentrations minimales inhibitrices (C. M. I.)
Procedure: (§1) Etude pharmacologiaue des produits de l'invention. Activité in vitro, méthode des dilutions en milieu liquide.
(§2) On prépare une série de tubes dans lesquels on répartit une même quantité de milieu nutritif stérile. On distribue dans chaque tube des quantités croissantes du produit à étudier, puis chaque tube est ensemencé avec une souche bactérienne. Après incubation de vingt-quatre ou quarante-huit heures à l'étuve à 37°C, l'inhibition de la croissance est appréciée par transillumination ce qui permet de déterminer les concentrations minimales inhibitrices (C. M. I.) exprimées en µg/cm3.

Escherichia Coli DC0 = conditions: read-out: concentrations minimales inhibitrices (C. M. I.)
Procedure: as §1, §2

Proteus mirabilis A 235 = conditions: read-out: concentrations minimales inhibitrices (C. M. I.)
Procedure: as §1, §2

Providencia DU 48 = conditions: read-out: concentrations minimales inhibitrices (C. M. I.)
Procedure: as §1, §2

Escherichia Coli DC2 = conditions: read-out: concentrations minimales inhibitrices (C. M. I.)
Procedure: as §1, §2

Escherichia Coli 078 = conditions: read-out: concentrations minimales inhibitrices (C. M. I.)
Procedure: as §1, §2

Serratia marcesceus 2532 = conditions: read-out: concentrations minimales inhibitrices (C. M. I.)
Procedure: as §1, §2

Escherichia Coli 1894 = conditions: read-out: concentrations minimales inhibitrices (C. M. I.)
Procedure: as §1, §2

[1] = system: Enterobacter cloacae 1321 E; conditions: read-out: concentrations minimales inhibitrices (C. M. I.)
Procedure: as §1, §2

[2] = system: Klebsiella Aeruginosa 1522 E; conditions: read-out: concentrations minimales inhibitrices (C. M. I.)
Procedure: as §1, §2

Escherichia Coli 1507 E = conditions: COLI1507E, read-out: concentrations minimales inhibitrices (C. M. I.)
Procedure: as §1, §2

Escherichia Coli TEM = conditions: read-out: concentrations minimales inhibitrices (C. M. I.)
Procedure: as §1, §2

[3] = system: Salmonella typhimurium MZ 11; conditions: Salmonella enterica, read-out: concentrations minimales inhibitrices (C. M. I.)
Procedure: as §1, §2

[4] = system: Klebsiella pneumonae 52145; conditions: read-out: concentrations minimales inhibitrices (C. M. I.)
Procedure: as §1, §2

[5] = system: Pseudomonas aeruginosa 1771 m; conditions: read-out: concentrations minimales inhibitrices (C. M. I.)
Procedure: as §1, §2

[6] = COLIDC0, 24 H incubation at 37°C
[7] = COLIDC0, 48 H incubation at 37°C
[8] = COLIDC2, 24 H incubation at 37°C
[9] = COLIDC2, 48 H incubation at 37°C
[10] = COLI078, 24 H incubation at 37°C
[11] = COLI078, 48 H incubation at 37°C
[12] = COLI1894, 24 H incubation at 37°C
[13] = COLI1894, 48 H incubation at 37°C

| SMILES | MIC (Proteus vulgaris A 232; A232, 24 H incubation at 37°C) [µg/mL] | MIC (Proteus vulgaris A 232; A232, 48 H incubation at 37°C) [µg/mL] | MIC (Escherichia Coli DC0; [6]) [µg/mL] | MIC (Escherichia Coli DC0; [7]) [µg/mL] | MIC (Proteus mirabilis A 235; A235, 24 H incubation at 37°C) [µg/mL] | MIC (Proteus mirabilis A 235; A235, 48 H incubation at 37°C) [µg/mL] | MIC (Providencia DU 48; DU48, 24 H incubation at 37°C) [µg/mL] | MIC (Providencia DU 48; DU48, 48 H incubation at 37°C) [µg/mL] | MIC (Escherichia Coli DC2; [8]) [µg/mL] | MIC (Escherichia Coli DC2; [9]) [µg/mL] | MIC (Escherichia Coli 078; [10]) [µg/mL] | MIC (Escherichia Coli 078; [11]) [µg/mL] | MIC (Serratia marcesceus 2532; 24 H incubation at 37°C) [µg/mL] | MIC (Serratia marcesceus 2532; 48 H incubation at 37°C) [µg/mL] | MIC (Escherichia Coli 1894; [12]) [µg/mL] | MIC (Escherichia Coli 1894; [13]) [µg/mL] | MIC ([1]; 24 H incubation at 37°C) [µg/mL] | MIC ([1]; 48 H incubation at 37°C) [µg/mL] | MIC ([2]; 24 H incubation at 37°C) [µg/mL] | MIC ([2]; 48 H incubation at 37°C) [µg/mL] | further results |
| --- | --- | --- | --- | --- | --- | --- | --- | --- | --- | --- | --- | --- | --- | --- | --- | --- | --- | --- | --- | --- | --- |
| CO/N=C(\C(=O)N[C@H]1CN(c2nn[nH]n2)C1=O)c1csc(N)n1 [Prod. ex.3, (3S) 3-//2-(2-aminothiazol-4-yl) 2-méthoxyimino acétyl /amino/ 1-(lH-tétrazol-5-yl) 2-azétidinone] | 0.3 (≈ 0.889 µM) | 0.3 (≈ 0.889 µM) | 0.6 (≈ 1.78 µM) | 1.2 (≈ 3.56 µM) | 0.6 (≈ 1.78 µM) | 0.6 (≈ 1.78 µM) | 0.3 (≈ 0.889 µM) | 0.6 (≈ 1.78 µM) | 0.6 (≈ 1.78 µM) | 0.6 (≈ 1.78 µM) | 0.3 (≈ 0.889 µM) | 0.3 (≈ 0.889 µM) | 2.5 (≈ 7.41 µM) | 5 (≈ 14.8 µM) | 0.15 (≈ 0.445 µM) | 0.15 (≈ 0.445 µM) | 0.3 (≈ 0.889 µM) | 0.3 (≈ 0.889 µM) | 0.3 (≈ 0.889 µM) | 0.3 (≈ 0.889 µM) | MIC (Escherichia Coli 1507 E; 24 H incubation at 37°C): 0.6 µg/mL (≈ 1.78 µM); MIC (Escherichia Coli 1507 E; 48 H incubation at 37°C): 0.6 µg/mL (≈ 1.78 µM); MIC (Escherichia Coli TEM; 24 h): 10 µg/mL (≈ 29.6 µM); MIC (Escherichia Coli TEM; 48 h): 10 µg/mL (≈ 29.6 µM); MIC ([3]; 24 H incubation at 37°C): 0.3 µg/mL (≈ 0.889 µM); MIC ([3]; 48 H incubation at 37°C): 0.3 µg/mL (≈ 0.889 µM); MIC ([4]; 24 H incubation at 37°C): 1.2 µg/mL (≈ 3.56 µM); MIC ([4]; 48 H incubation at 37°C): 1.2 µg/mL (≈ 3.56 µM); MIC ([5]; 24 H incubation at 37°C): 5 µg/mL (≈ 14.8 µM); MIC ([5]; 48 H incubation at 37°C): 10 µg/mL (≈ 29.6 µM) |
| C[C@@H]1[C@H](NC(=O)/C(=N\OC(F)F)c2csc(N)n2)C(=O)N1c1nn[nH]n1 (racemic) [Prod. ex. 4] | 0.3 (≈ 0.775 µM) | 0.3 (≈ 0.775 µM) | 1.2 (≈ 3.1 µM) | 1.2 (≈ 3.1 µM) | 0.3 (≈ 0.775 µM) | 0.3 (≈ 0.775 µM) | 2.5 (≈ 6.45 µM) | 2.5 (≈ 6.45 µM) | ≤ 0.04 | ≤ 0.04 | 0.3 (≈ 0.775 µM) | 0.3 (≈ 0.775 µM) | 20 (≈ 51.6 µM) | 20 (≈ 51.6 µM) | ≤ 0.04 | ≤ 0.04 | 1.2 (≈ 3.1 µM) | 1.2 (≈ 3.1 µM) | 1.2 (≈ 3.1 µM) | 1.2 (≈ 3.1 µM) | MIC (Escherichia Coli 1507 E; 24 H incubation at 37°C): 0.15 µg/mL (≈ 0.387 µM); MIC (Escherichia Coli 1507 E; 48 H incubation at 37°C): 0.15 µg/mL (≈ 0.387 µM); MIC (Escherichia Coli TEM; 24 h): 0.6 µg/mL (≈ 1.55 µM); MIC (Escherichia Coli TEM; 48 h): 1.2 µg/mL (≈ 3.1 µM); MIC ([3]; 24 H incubation at 37°C): 1.2 µg/mL (≈ 3.1 µM); MIC ([3]; 48 H incubation at 37°C): 1.2 µg/mL (≈ 3.1 µM); MIC ([4]; 24 H incubation at 37°C): 5 µg/mL (≈ 12.9 µM); MIC ([4]; 48 H incubation at 37°C): 5 µg/mL (≈ 12.9 µM) |
| CO/N=C(\C(=O)N[C@@H]1C(=O)N(c2nn[nH]n2)[C@@H]1CF)c1csc(N)n1 (racemic) [Prod. ex. 11, (3SR,4SR) 3-//2-(2-aminothiazol-4-yl) 2-méthoxyimino acétyl/ amino/ 4-(fluorométhyl) 1-(1-H-tétrazol-5-yl) 2-azétidinone] | 0.15 (≈ 0.406 µM) | 0.15 (≈ 0.406 µM) | 0.6 (≈ 1.62 µM) | 0.6 (≈ 1.62 µM) | 0.15 (≈ 0.406 µM) | 0.15 (≈ 0.406 µM) | 1.2 (≈ 3.25 µM) | 1.2 (≈ 3.25 µM) | 0.15 (≈ 0.406 µM) | 0.15 (≈ 0.406 µM) | 0.15 (≈ 0.406 µM) | 0.15 (≈ 0.406 µM) | 10 (≈ 27.1 µM) | 10 (≈ 27.1 µM) | ≤ 0.04 | ≤ 0.04 | 0.3 (≈ 0.812 µM) | 0.3 (≈ 0.812 µM) | 0.6 (≈ 1.62 µM) | 0.6 (≈ 1.62 µM) | MIC (Escherichia Coli 1507 E; 24 H incubation at 37°C): 0.08 µg/mL (≈ 0.217 µM); MIC (Escherichia Coli 1507 E; 48 H incubation at 37°C): 0.08 µg/mL (≈ 0.217 µM); MIC (Escherichia Coli TEM; 24 h): 0.6 µg/mL (≈ 1.62 µM); MIC (Escherichia Coli TEM; 48 h): 0.6 µg/mL (≈ 1.62 µM); MIC ([3]; 24 H incubation at 37°C): 0.3 µg/mL (≈ 0.812 µM); MIC ([3]; 48 H incubation at 37°C): 0.3 µg/mL (≈ 0.812 µM); MIC ([4]; 24 H incubation at 37°C): 1.2 µg/mL (≈ 3.25 µM); MIC ([4]; 48 H incubation at 37°C): 1.2 µg/mL (≈ 3.25 µM) |
